The test system of one test is HCV RNA. The experiment in a line: Part B (MAD): antiviral response (HCV RNA viral load) in treatment naive subjects with chronic HCV infection. Format: in vivo, human. The text has this:
Part B was a blinded, randomized, placebo-controlled MAD study consisting of four cohorts of eight subjects randomized 6:2 to receive Formula (IIa) or placebo. A total of 30 treatment naïve subjects with CHC infection were enrolled in and a total of 29 subjects (22 subjects administered Formula (IIa) and 7 subjects administered placebo) completed Part B of the study. One subject administered placebo withdrew from the study on Day 2. Subjects infected with HCV-1 and HCV-3 genotypes were enrolled, and no subjects infected with HCV-2 participated in the study. To control for the possible effect of the IL28b genotype, the number of subjects with CC alleles was capped at three per cohort.
The starting dose was determined by the SRC based on review of all safety and any available PK/PD data from Part A. All subjects were dosed in the fasted state with Formula (IIa) daily, from Day 1 until […]. All subjects had nothing by mouth other than water for at least 10 hours prior to daily dosing and for 4 hours thereafter. In Part B, all subjects were administered the study medication orally with approximately 240 mL of water at the same time every day (+/−10 minutes).
A subset of blood samples shown in Table 3 above was used for the PK evaluation of plasma trough concentrations (Table 4). […]

Test [1] deals with HCV from sera of patients infected with resistant strains. The experiment in a line: Capture fusion assay: THP-1 cells infected with patient serum, fused with Huh7.5, HCV RNA by PCR. Format: cell-based. The conditions noted are these: for IC50: Hepatitis C virus. The procedure: Serum samples were taken from 30 patients who had either responded to or previously failed treatment with combination peg-interferon/ribavirin and a direct acting antiviral (DAA), e.g., sofosbuvir and ledipasvir, or DAA treatment alone (FIG. 16). The anti-HCV activity of Formula (IIa) was assessed using the capture fusion assay. Briefly, pre-stimulated THP-1 cells were infected with serum from donors chronically infected with the common HCV genotypes G1 or G3, or from patients infected with the less prevalent G2, G4 or G6 HCV. The hybrid cells were treated once with a range of concentrations of Formula (IIa). For comparison, fused cells infected with G1 and G3 sera were treated with telaprevir or alisporivir. The cells were cultured for 5 days, before quantification of HCV RNA by PCR. Dose-response curves were used to calculate IC50 values for each experiment. The detailed assay protocol is outlined below.
Huh7.5 and Huh7 cells were maintained in Dulbecco's modified Eagle medium with glutamine supplemented with 10% fetal calf serum and 1% penicillin/streptomycin (DMEM/10% FCS/PS). THP-1 cells were maintained in RPMI with glutamine supplemented with 10% fetal calf serum and 1% penicillin/streptomycin (RPMI/10% FCS/PS). Peripheral blood mononuclear cells (PBMC) and sera were obtained from patients with chronic HCV infection, with informed consent. Cytokines used were phorbol 12-myristate 13-acetate (PMA, Sigma-Aldrich, Dorset, UK), IFNγ (Invitrogen, Paisley, UK) and osteopontin (R&D Systems, Abingdon, UK). Primary antibodies used were anti-albumin (Dako, Glostrup, Denmark), anti-CD81 (BD Biosciences, Oxford, UK), anti-SR-B1 (Novus Biologicals, Cambridge, UK), anti-CD32 and anti-CD64 (Abcam, Cambridge, UK). Mouse IgG1 isotype control was purchased from Biolegend UK (London, UK). Fluorescent secondary antibodies AlexaFluor488 and 594 anti-sheep, anti-mouse and anti-rabbit IgG were purchased from Invitrogen.
PBMCs were separated from whole blood by centrifugation on Ficoll-Paque. The PBMC layer was washed twice before positive selection of CD14+ cells by magnetic separation. Huh7.5 cells were trypsinized and combined with CD14+ cells at a 1:1 ratio. After removal of all supernatant, the cell pellet was slowly resuspended in prewarmed polyethylene glycol 1500 (Roche Diagnostics, Burgess Hill, UK). After incubation at 37° C. for 2 minutes, prewarmed medium (DMEM/10% FCS/PS) was added dropwise and the cells washed by centrifugation. The fused cells were seeded into 6 well plates at a density of 5×10^5 cells/mL and maintained at 37° C. until RNA extraction.
THP-1 cells were seeded into 6 well plates at a density of 10^6 cells/mL and maintained in RPMI supplemented with 10% fetal calf serum and 1% penicillin/streptomycin (RPMI/10% FCS/1% PS) for 18 hours, with or without the addition of cytokines. The cells were washed three times and the medium replaced with RPMI/2% FCS and patient serum at a ratio of 1 HCV copy per cell. For antibody blocking experiments, cells were incubated with blocking antibody at 37° C. for one hour before addition of patient serum. After incubation at 37° C. for 18-24 hours, the supernatant was removed and cells were washed three times. Adherent cells were removed using a cell scraper and Huh7.5 cells added at a 1:1 ratio. Cell fusion was performed as described above. The fused cells were seeded into 6 well plates at a density of 10^5 cells/mL and maintained at 37° C. in the presence or absence of antiviral drugs for up to 7 days. In selected experiments, supernatants were pooled from non-drug treated wells and concentrated on a sucrose gradient. In brief, the pooled supernatants were filtered through a 0.45 μm filter then 10 mL of each was layered on 4 mL 20% sucrose. The supernatants were centrifuged at 24,000×g for 2 hours and the resulting pellet resuspended in 1 mL RPMI. […]

Like-named read-outs stand apart in the source and are kept apart here. Where only a bound is given, the exact number is not on record here.

We go through one compound from patent US20190046552A1, “COMPOSITIONS AND METHODS FOR THE TREATMENT OF HCV INFECTION” (priority 2015, published 2019).

For orientation: IC50 means the concentration needed to halve the response being measured. Regarding `CO[C@H]1C(OP(=O)(OC[C@H]2O[C@@H](n3cnc4c(N)ncnc43)CC2O)SCOC(=O)OC(C)C)[C@@H](CO)O[C@H]1n1ccc(=O)[nH]c1=O` (stereo partly drawn) [Formula (IIa)], the figures for the “Peak individual viral load drop” value in the test with HCV RNA (200 mg Formula (IIa) QD) and in the test on HCV RNA (400 mg Formula (IIa) QD) were 1.5 log10 and 1.9 log10, respectively. The IC50 in test [1] (five selected patient samples with NS5A mutations (Example 4, FIGS. 18A-18E), read-out: IC50 range) was no less than 1 nM; in test [1] (genotype 3, genotype 3, treatment experienced group, mean±sem), 22 nM; in test [1] (genotype 3, genotype 3, treatment naive group, mean±sem, read-out: IC50), 26 ± 7 nM; in test [1] (patient sample post-peg/RBV treatment, read-out: IC50), 455 nM; in test [1] (patient sample pre-peg/RBV treatment, read-out: IC50), 450 nM; in test [1] (sample from patient 7 prior to administration of telaprevir, FIG. 14A, read-out: IC50) it was 450 nM. Besides, the IC50 was 24 nM in test [1] (sample from patient 22, repeated relapse after combination interferon and ribavirin therapy (IFN resistant), FIG. 12A, read-out: IC50); 5.46 nM in test [1] (sample from patient 23, relapse of HCV infection (IFN resistant), FIG. 12B, read-out: IC50); 6.4 nM in test [1] (sample from patient 25 after treatment with telaprevir, FIG. 14B, read-out: IC50); 4 nM in test [1] (serum sample from patient 30, sofosbuvir resistant strain, FIG. 13C, read-out: IC50); 1 to 455 nM in test [1] (serum samples from 30 patients (Example 3), read-out: IC50 range for all patient samples). Also, the “genotype coverage of anti-HCV activity” value in test [1] (patient sera of HCV genotypes G1, G3, G2, G4 or G6) is reported as “pan-genotypic activity”. Moreover, the “sensitivity of sample to treatment” value in test [1] (post-treatment sample of patient who relapsed after sofosbuvir-containing therapy, FIG. 24C) is given as “sensitive”.
